This note sets out measurements from US8022206B2 (OSI Pharmaceuticals, LLC, priority 2008, dated 2011).

By IC50 is commonly meant the concentration at which inhibition is half-maximal.

One test addresses RON (human) (Homo sapiens, UniProt Q04912). Kind of test: RON (human) AlphaScreen kinase assay, Km of ATP. It is filed as biochemical. The following applies: AlphaScreen, Km of ATP; read-out: RON biochemical IC50. The essentials:
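Detection used PT66 AlphaScreen beads added in Tris pH 7.5/NaCl/EDTA/BSA buffer, read after 1 h incubation. Vehicle-only DMSO wells served as controls.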
(In general: In Alpha technology, singlet oxygen from a donor bead excites a nearby acceptor bead.)

For another test, the target named is MET (human) (Homo sapiens, UniProt P08581). The test is described as follows: MET (human) AlphaScreen kinase assay, Km of ATP. Format: biochemical. The following applies: AlphaScreen, Km of ATP; read-out: Met biochemical IC50. A digest of the protocol:
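Human MET at lot-optimised concentration in 50 mM Tris pH 7.4 buffer with 1 mM DTT, compound at 1% DMSO final; enzyme starts the reaction, 60 min at RT.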

MET (human), sequence (P08581 25-1390): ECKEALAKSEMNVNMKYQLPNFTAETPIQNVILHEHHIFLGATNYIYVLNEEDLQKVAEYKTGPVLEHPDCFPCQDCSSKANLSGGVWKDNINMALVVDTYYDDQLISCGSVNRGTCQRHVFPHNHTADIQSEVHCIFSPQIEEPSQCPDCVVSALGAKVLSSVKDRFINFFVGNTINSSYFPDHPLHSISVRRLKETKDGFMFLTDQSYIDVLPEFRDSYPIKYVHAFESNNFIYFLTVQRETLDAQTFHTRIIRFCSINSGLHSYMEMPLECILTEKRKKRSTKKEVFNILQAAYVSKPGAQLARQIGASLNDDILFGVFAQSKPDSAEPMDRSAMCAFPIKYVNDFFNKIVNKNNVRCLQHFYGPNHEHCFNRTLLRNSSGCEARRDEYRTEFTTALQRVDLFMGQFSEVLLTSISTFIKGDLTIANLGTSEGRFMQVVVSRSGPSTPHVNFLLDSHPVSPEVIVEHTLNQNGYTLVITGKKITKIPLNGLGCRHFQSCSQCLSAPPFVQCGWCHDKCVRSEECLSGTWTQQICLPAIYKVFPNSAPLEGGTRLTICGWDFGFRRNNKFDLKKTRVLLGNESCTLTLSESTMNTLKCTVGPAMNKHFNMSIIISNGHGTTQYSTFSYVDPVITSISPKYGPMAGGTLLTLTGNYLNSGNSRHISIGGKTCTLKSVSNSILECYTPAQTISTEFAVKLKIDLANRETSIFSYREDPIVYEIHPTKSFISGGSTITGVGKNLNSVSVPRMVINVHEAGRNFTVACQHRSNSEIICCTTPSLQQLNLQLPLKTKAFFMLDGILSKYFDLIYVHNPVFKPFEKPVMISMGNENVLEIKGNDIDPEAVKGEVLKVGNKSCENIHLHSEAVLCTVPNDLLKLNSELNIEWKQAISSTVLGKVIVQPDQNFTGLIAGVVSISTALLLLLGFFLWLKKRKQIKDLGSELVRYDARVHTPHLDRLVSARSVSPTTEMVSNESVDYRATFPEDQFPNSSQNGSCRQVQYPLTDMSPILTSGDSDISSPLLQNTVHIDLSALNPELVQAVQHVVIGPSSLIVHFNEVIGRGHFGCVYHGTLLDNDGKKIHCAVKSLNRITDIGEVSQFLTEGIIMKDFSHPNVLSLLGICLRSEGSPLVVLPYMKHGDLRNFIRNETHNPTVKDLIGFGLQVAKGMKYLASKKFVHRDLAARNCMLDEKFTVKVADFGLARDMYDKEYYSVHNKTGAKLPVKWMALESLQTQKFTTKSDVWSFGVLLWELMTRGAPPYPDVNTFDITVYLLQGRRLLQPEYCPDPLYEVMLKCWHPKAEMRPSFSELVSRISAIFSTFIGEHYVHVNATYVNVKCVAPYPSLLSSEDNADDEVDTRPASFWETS
RON (human), sequence (Q04912 25-1400): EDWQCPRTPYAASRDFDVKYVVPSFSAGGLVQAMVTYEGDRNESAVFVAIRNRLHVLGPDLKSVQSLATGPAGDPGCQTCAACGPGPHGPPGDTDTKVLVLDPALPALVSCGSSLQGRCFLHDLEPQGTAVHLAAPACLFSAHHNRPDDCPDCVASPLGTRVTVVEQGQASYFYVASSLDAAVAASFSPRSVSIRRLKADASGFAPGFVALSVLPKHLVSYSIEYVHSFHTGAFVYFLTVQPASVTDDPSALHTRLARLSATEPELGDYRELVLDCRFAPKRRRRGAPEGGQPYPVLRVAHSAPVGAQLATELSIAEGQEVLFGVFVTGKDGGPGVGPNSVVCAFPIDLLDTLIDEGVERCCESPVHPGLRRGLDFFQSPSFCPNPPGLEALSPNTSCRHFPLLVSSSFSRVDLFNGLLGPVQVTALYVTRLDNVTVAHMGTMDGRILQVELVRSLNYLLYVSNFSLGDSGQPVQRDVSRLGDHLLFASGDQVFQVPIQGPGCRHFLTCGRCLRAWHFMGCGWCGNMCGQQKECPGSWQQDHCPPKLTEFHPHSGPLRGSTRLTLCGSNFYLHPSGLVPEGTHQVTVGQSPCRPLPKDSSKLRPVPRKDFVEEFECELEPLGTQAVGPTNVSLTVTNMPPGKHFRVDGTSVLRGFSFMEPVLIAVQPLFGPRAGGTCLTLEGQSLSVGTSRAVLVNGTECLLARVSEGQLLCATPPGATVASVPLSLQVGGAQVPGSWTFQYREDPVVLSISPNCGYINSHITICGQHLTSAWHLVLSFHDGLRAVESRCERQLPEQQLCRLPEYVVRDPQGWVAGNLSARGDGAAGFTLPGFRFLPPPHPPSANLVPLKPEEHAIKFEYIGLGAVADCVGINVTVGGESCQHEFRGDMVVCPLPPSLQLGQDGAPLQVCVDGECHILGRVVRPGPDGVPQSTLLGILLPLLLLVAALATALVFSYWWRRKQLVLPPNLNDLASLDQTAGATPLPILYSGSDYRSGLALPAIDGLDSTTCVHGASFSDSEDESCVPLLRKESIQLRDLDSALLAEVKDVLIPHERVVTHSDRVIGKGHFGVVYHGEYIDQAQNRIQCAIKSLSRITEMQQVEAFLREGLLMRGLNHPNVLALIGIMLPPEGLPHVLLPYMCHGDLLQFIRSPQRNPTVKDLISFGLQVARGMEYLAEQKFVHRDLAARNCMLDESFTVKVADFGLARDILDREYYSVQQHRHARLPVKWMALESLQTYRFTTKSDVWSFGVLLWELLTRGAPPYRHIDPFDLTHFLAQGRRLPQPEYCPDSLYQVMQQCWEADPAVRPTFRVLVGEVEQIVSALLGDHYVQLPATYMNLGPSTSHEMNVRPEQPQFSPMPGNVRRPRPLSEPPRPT

`CNC(=O)CN1CC=C(c2coc3c(O[C@H](C)c4c(Cl)ccc(F)c4Cl)c(N)ncc23)CC1` [Example 201, 2-(4-{6-Amino-7-[(R)-1-(2,6-dichloro-3-fluorophenyl)ethoxy]-furo[3,2-c]pyridin-3-yl}-3,6-dihydro-2H-pyridin-1-yl)-N-methylacetamide]: the figures for the IC50 on RON (human) and at MET (human) were 500 to 5000 nM and < 500 nM, respectively.

For `Cn1c(Cc2ccccc2)ncc(-c2ccc(COc3c(N)ncc4c(Br)coc34)cc2)c1=O` [Example 465, 5-[4-(6-Amino-3-bromofuro[3,2-c]pyridin-7-yloxymethyl)phenyl]-2-benzyl-3-methyl-3H-pyrimidin-4-one], the IC50 at RON (human) lay within 5000 to 20000 nM; on MET (human), 500 to 5000 nM.

For `C[C@@H](Oc1c(N)ncc2c(C3=CCN(S(C)(=O)=O)CC3)coc12)c1c(Cl)ccc(F)c1Cl` [Example 46, 7-[(R)-1-(2,6-Dichloro-3-fluorophenyl)-ethoxy]-3-(1-methanesulfonyl-1,2,3,6-tetrahydropyridin-4-yl)-furo[3,2-c]pyridin-6-ylamine], the IC50 at RON (human) is 500 to 5000 nM; on MET (human), < 500 nM.

On to `COc1cccc(Cl)c1C(C)Oc1c(N)ncc2c(-c3cnn(C4CCNCC4)c3)coc12` (centres unmarked) [Example 359, 7-[1-(2-Chloro-6-methoxyphenyl)ethoxy]-3-(1-piperidin-4-yl-1H-pyrazol-4-yl)furo[3,2-c]pyridin-6-ylamine], for which the IC50 on RON (human) and at MET (human) was < 500 nM each time.

As to `C[C@@H](Oc1c(N)ncc2c(C(=O)NCCN(C)C)coc12)c1c(Cl)ccc(F)c1Cl` [Example 190, 6-Amino-7-[(R)-1-(2,6-dichloro-3-fluorophenyl)ethoxy]furo[3,2-c]pyridine-3-carboxylic acid (3-dimethylaminoethyl)amide], the values for the IC50 at RON (human) and at MET (human) were 500 to 5000 nM and < 500 nM, respectively.

With `C[C@@H](Oc1c(N)ncc2c(-c3cnc(N)nc3)coc12)c1c(Cl)ccc(F)c1Cl` [Example 113, 3-(2-Amino-pyrimidin-5-yl)-7-[(R)-1-(2,6-dichloro-3-fluorophenyl)ethoxy]furo[3,2-c]pyridin-6-ylamine], the IC50 on RON (human) and on MET (human) was 500 to 5000 nM each time.

For `COc1ccc(-c2coc3c(O[C@H](C)c4c(Cl)ccc(F)c4Cl)c(N)ncc23)cc1` [Example 69, 7-[(R)-1-(2,6-Dichloro-3-fluorophenyl)ethoxy]-3-(4-methoxyphenyl)-furo[3,2-c]pyridin-6-ylamine], the IC50 on RON (human) and on MET (human) was 500 to 5000 nM throughout.

With `CC(Oc1c(N)ncc2c(-c3cnn(C4CCNCC4)c3)coc12)c1cccc(Br)c1` (centres unmarked) [Example 387, 7-[1-(3-Bromophenyl)ethoxy]-3-(1-piperidin-4-yl-1H-pyrazol-4-yl)furo[3,2-c]pyridin-6-ylamine], the IC50 at RON (human) was 500 to 5000 nM; on MET (human) it was < 500 nM.

Turning to `C[C@@H](Oc1c(N)ncc2c(-c3ccc(N)nc3)coc12)c1c(Cl)ccc(F)c1Cl` [Example 131, 3-(6-Amino-pyridin-3-yl)-7-[(R)-(2,6-dichloro-3-fluorophenyl)ethoxy]furo[3,2-c]pyridin-6-ylamine], the figures for the IC50 on RON (human) and at MET (human) were 500 to 5000 nM and < 500 nM, respectively.

In the case of `CC(Oc1c(N)ncc2c(-c3cnn(C4CCNCC4)c3)coc12)c1cccc(-c2ccc[nH]2)c1` (centres unmarked) [Example 445], the IC50 at RON (human) and on MET (human) was 500 to 5000 nM throughout.

`CC(Cc1ccc(F)cc1)Oc1c(N)ncc2c(-c3cnn(C4CCNCC4)c3)coc12` (centres unmarked) [Example 425, 7-[2-(4-Fluorophenyl)-1-methylethoxy]-3-(1-piperidin-4-yl-1H-pyrazol-4-yl)furo[3,2-c]pyridin-6-ylamine]: the IC50 was 500 to 5000 nM on RON (human) and < 500 nM at MET (human).

With `Nc1ncc2c(-c3cnn(C4CCNCC4)c3)coc2c1O[C@@H](c1ccccc1)C(F)(F)F` [Example 391, 3-(1-Piperidin-4-yl-1H-pyrazol-4-yl)-7-((S)-2,2,2-trifluoro-1-phenylethoxy)furo[3,2-c]pyridin-6-ylamine], the half-inhibitory concentration (IC50) on RON (human) is 500 to 5000 nM; on MET (human), < 500 nM.

`C[C@@H](Oc1c(N)ncc2c(-c3ccc(S(C)(=O)=O)cc3)coc12)c1c(Cl)ccc(F)c1Cl` [Example 62, 7-[(R)-1-(2,6-Dichloro-3-fluorophenyl)ethoxy]-3-(4-methane-sulfonylphenyl)furo[3,2-c]pyridin-6-ylamine]: the IC50 on RON (human) and on MET (human) was 500 to 5000 nM in each case.

As for `C[C@H](Oc1c(N)ncc2c(-c3cnn(C4CCNCC4)c3)coc12)c1nnc2ccc(-c3cnn(C)c3)nn12` [Example 479, 7-{(1S)-1-[6-(1-methyl-1H-pyrazol-4-yl) [1,2,4]triazolo[4,3-b]pyridazin-3-yl]ethoxy}-3-[1-(piperidin-4-yl)-1H-pyrazol-4-yl]furo[3,2-c]pyridin-6-amine], the IC50 lay in the range of 5000 to 20000 nM at RON (human) and 500 to 5000 nM at MET (human).

With `C[C@@H](Oc1c(N)ncc2c(C3=CCN(CCN)CC3)coc12)c1c(Cl)ccc(F)c1Cl` [Example 43, 3-[1-(2-Aminoethyl)-1,2,3,6-tetrahydropyridin-4-yl]-7-[(R)-1-(2,6-dichloro-3-fluorophenyl)ethoxy]-furo[3,2-c]pyridin-6-ylamine], the IC50 on RON (human) and on MET (human) was < 500 nM throughout.

As for `C[C@@H](Oc1c(N)ncc2c(-c3csc(CN4CCCC4)c3)coc12)c1c(Cl)ccc(F)c1Cl` [Example 308, 7-[(R)-1-(2,6-Dichloro-3-fluorophenyl)ethoxy]-3-(5-pyrrolidin-1-ylmethylthiophen-3-yl)furo[3,2-c]pyridin-6-ylamine], the IC50 on RON (human) and at MET (human) was < 500 nM each time.

For the molecule `C[C@H](Oc1c(N)ncc2ccoc12)c1nnc2ccc(-c3ccccc3)nn12` [Example 475, 7-[(1S)-1-(6-phenyl[1,2,4]triazolo[4,3-b]pyridazin-3-yl)ethoxy]furo[3,2-c]pyridin-6-amine], the 50% inhibitory concentration (IC50) on RON (human) was > 20000 nM; on MET (human), 5000 to 20000 nM.

Regarding `C[C@@H](Oc1c(N)ncc2c(-c3ccc(C(=O)O)s3)coc12)c1c(Cl)ccc(F)c1Cl` [Example 206, 5-{6-Amino-7-[(R)-1-(2,6-dichloro-3-fluorophenyl)ethoxy]-furo[3,2-c]pyridin-3-yl}-thiophene-2-carboxylic acid], the values for the concentration for half-maximal inhibition (IC50) on RON (human) and on MET (human) were 500 to 5000 nM and < 500 nM, respectively.

On to `C[C@@H](Oc1c(N)ncc2c(-c3csc(CN4CCN(C)CC4)c3)coc12)c1c(Cl)ccc(F)c1Cl` [Example 304, 7-[(R)-1-(2,6-Dichloro-3-fluorophenyl)ethoxy]-3-[5-(4-methyl-piperazin-1-ylmethyl)thiophen-3-yl]-furo[3,2-c]pyridin-6-ylamine], for which the IC50 at RON (human) and at MET (human) was < 500 nM in each case.

Consider `CC(Oc1c(N)ncc2c(-c3cnn(C4CCNCC4)c3)coc12)c1c(F)cccc1F` (centres unmarked) [Example 383, 7-[1-(2,6-Difluorophenyl)ethoxy]-3-(1-piperidin-4-yl-1H-pyrazol-4-yl)furo[3,2-c]pyridin-6-ylamine], for which the IC50 at RON (human) is 500 to 5000 nM; on MET (human), < 500 nM.

Consider `Cc1cccc(C(C)Oc2c(N)ncc3c(-c4cnn(C5CCNCC5)c4)coc23)c1` (centres unmarked) [Example 343, 3-(1-Piperidin-4-yl-1H-pyrazol-4-yl)-7-(1-m-tolylethoxy)furo[3,2-c]pyridin-6-ylamine], for which the IC50 on RON (human) and on MET (human) was 500 to 5000 nM each time.

Regarding `C[C@@H](Oc1c(N)ncc2c(C3=CCN(C(=O)N4CCNCC4)CC3)coc12)c1c(Cl)ccc(F)c1Cl` [Example 33, (4-{6-Amino-7-[(R)-1-(2,6-dichloro-3-fluorophenyl)-ethoxy]-furo[3,2-c]pyridin-3-yl}-3,6-dihydro-2H-pyridin-1-yl)-piperazin-1-ylmethanone], the IC50 on RON (human) and on MET (human) was < 500 nM each time.

As for `C[C@@H](Oc1c(N)ncc2c(C3=CCN(C(=O)N4CCN(C)CC4)CC3)coc12)c1c(Cl)ccc(F)c1Cl` [Example 225, (4-{6-Amino-7-[(R)-1-(2,6-dichloro-3-fluorophenyl)-ethoxy]-furo[3,2-c]pyridin-3-yl}-3,6-dihydro-2H-pyridin-1-yl)-(4-methylpiperazin-1-yl)-methanone], the IC50 on RON (human) and at MET (human) was < 500 nM throughout.

With `C[C@@H](Oc1c(N)ncc2c(-c3ccc(C(=O)N4CCC(O)C4)cc3)coc12)c1c(Cl)ccc(F)c1Cl` (some centres unmarked) [Example 299], the IC50 on RON (human) and at MET (human) was 500 to 5000 nM in each case.

Turning to `C[C@@H](Oc1c(N)ncc2c(-c3cnn(C4CCNCC4)c3)coc12)c1nnc2ccc(-c3ccccc3)nn12` [Example 476, 7-[(1R)-1-(6-phenyl[1,2,4]triazolo[4,3-b]pyridazin-3-yl)ethoxy]-3-[1-(piperidin-4-yl)-1H-pyrazol-4-yl]furo[3,2-c]pyridin-6-amine], the concentration for half-maximal inhibition (IC50) was 500 to 5000 nM on RON (human) and < 500 nM on MET (human).

`COCCCNC(=O)c1coc2c(O[C@H](C)c3c(Cl)ccc(F)c3Cl)c(N)ncc12` [Example 191, 6-Amino-7-[(R)-1-(2,6-dichloro-3-fluorophenyl)ethoxy]furo[3,2-c]pyridine-3-carboxylic acid (3-methoxypropyl)amide]: the IC50 on RON (human) and on MET (human) was 500 to 5000 nM each time.

As for `CCCCS(=O)(=O)Nc1cccc(-c2coc3c(O[C@H](C)c4c(Cl)ccc(F)c4Cl)c(N)ncc23)c1` [Example 246, Butane-1-sulfonic acid (3-{6-amino-7-[(R)-1-(2,6-dichloro-3-fluorophenyl)ethoxy]-furo[3,2-c]pyridin-3-yl}phenyl)amide], the results for the half-maximal inhibitory concentration (IC50) at RON (human) and on MET (human) were 5000 to 20000 nM and 500 to 5000 nM, respectively.

Turning to `C[C@@H](N)C(=O)N1CC=C(c2coc3c(O[C@H](C)c4c(Cl)ccc(F)c4Cl)c(N)ncc23)CC1` [Example 252, (2R)-2-Amino-1-[4-{6-amino-7-[(1R)-1-(2,6-dichloro-3-fluoro-phenyl)ethoxy]furo[3,2-c]pyridin-3-yl}-3,6-dihydropyridin-1(2H)-yl]propan-1-one], the IC50 at RON (human) and on MET (human) was < 500 nM each time.
